# Entries after “also recorded” stand apart in the source; their conditions may differ. Read-outs that look alike come from different tables or passages of the source.
# Columns and labels:
# [1] = target: T1, human A1 adenosine receptor (Homo sapiens, UniProt P30542); test: [3H]DPCPX binding to human A1 receptors expressed in CHO cells
# T1 construct: expressed in transfected cells; host or cells: CHO cells (membranes)
# T1 sequence (P30542 1-326): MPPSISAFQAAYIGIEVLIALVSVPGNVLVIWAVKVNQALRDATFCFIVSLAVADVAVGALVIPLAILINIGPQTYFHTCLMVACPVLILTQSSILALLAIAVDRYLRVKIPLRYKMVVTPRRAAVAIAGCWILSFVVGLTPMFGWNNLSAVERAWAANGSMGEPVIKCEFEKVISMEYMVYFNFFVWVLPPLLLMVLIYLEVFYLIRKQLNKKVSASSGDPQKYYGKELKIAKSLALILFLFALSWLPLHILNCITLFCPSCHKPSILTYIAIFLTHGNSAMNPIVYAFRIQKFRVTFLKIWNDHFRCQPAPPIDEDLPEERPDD
# Experimental: The cells were grown adherently and maintained in Dulbecco's modified Eagle's medium with nutrient mixture F12 without nucleosides at 37° C. in 5% CO2/95% air. The cells were washed with phosphate-buffered saline and scraped off flasks in ice cold hypotonic buffer ([…] Tris HCl, 2 mM EDTA, pH 7.4). The cell suspension was homogenized with a Polytron and the homogenate was centrifuged for 30 minutes at 48,000 g. The resultant membrane pellet was re-suspended in 50 mM Tris HCl buffer at pH 7.4 for A1 adenosine receptors; in 50 mM Tris HCl 10 mM MgCl, at pH 7.4 for A2A adenosine receptors; in 50 mM Tris HCl, 10 mM MgCl2, 1 mM EDTA, at pH 7.4 for A3 adenosine receptors and were utilized for binding assays.
# Displacement experiments were performed for 120 minutes at 25° C. in 200 μl of buffer containing 1 nM ^3H]-DPCPX 20 μl of diluted membranes (50 μg of protein/assay) and at least 6 to 8 different concentrations of examined compounds.
# The filter bound radioactivity was counted on Top Count (efficiency 57%) with Micro-Scint 20.
# The filter bound radioactivity was counted on a Top Count brand Microplate Scintillation Counter (efficiency 57%) with Micro-Scint 20. […] Inhibitory binding constant. […] Results and Discussion
# [2] = target: T2, human A2A adenosine receptor (Homo sapiens, UniProt P29274); test: [3H]ZM241385 binding to human A2A receptors expressed in CHO cells; details: for Ki: read-out: Ki, [3H]ZM241385 binding to human A2A receptors expressed in CHO cells; for Ki, [3H]ZM241385 binding to human A2A receptors expressed in CHO cells: geometric mean (95% confidence interval), >1000 = no appreciable binding
# T2 construct: expressed in transfected cells; host or cells: CHO cells (membranes)
# T2 sequence (P29274 whole entry): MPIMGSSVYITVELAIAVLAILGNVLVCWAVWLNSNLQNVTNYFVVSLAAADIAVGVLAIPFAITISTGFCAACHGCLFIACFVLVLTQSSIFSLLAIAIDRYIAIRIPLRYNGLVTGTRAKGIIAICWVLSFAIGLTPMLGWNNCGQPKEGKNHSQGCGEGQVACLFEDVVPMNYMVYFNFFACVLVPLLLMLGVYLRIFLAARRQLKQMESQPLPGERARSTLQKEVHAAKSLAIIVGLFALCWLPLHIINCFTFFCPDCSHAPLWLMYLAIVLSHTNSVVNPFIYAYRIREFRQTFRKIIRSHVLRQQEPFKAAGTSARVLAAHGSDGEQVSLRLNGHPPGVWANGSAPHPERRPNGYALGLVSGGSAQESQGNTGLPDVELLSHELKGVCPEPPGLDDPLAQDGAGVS
# Method in brief: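 Membranes from adherent CHO cells, resuspended in 50 mM Tris HCl with 10 mM MgCl2, pH 7.4. The inhibitory binding constant is reported.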
# [3] = target: T3, human A3 adenosine receptor (Homo sapiens, UniProt P0DMS8); test: [3H]MRE3008F20 binding to human A3 receptors expressed in CHO cells; details: for Ki, [3H]MRE3008F20 binding to human A3 receptors expressed in CHO cells: geometric mean (95% confidence interval), >1000 = no appreciable binding
# T3 construct: expressed in transfected cells; host or cells: CHO cells (membranes)
# T3 sequence (P0DMS8 1-318): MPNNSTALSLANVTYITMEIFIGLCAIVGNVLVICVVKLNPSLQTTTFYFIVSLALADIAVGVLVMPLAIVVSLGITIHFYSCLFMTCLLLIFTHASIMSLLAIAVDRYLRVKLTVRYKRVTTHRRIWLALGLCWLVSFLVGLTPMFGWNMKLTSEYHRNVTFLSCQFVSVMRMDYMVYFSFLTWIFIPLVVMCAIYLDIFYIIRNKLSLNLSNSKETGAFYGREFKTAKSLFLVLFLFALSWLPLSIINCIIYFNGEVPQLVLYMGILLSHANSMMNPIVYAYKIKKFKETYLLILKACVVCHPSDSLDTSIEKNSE
# Method in brief: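 CHO cell membranes (50 μg protein) competed against 1 nM [3H]-MRE3008-F20 in 50 mM Tris HCl, MgCl2, pH 7.4, with 6–8 ligand concentrations in duplicate, 120 minutes at 4° C. Filter-bound radioactivity counted by scintillation; inhibitory binding constants derived.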
# [4] = target: T4, human A2B adenosine receptor (Homo sapiens, UniProt P29275); test: Cyclic AMP assay, antagonism of NECA-stimulated cAMP in CHO cells transfected with human A2B receptors; assay type: cell-based; details: inhibition of NECA (100 nM)-stimulated cAMP; geometric mean (95% confidence limits)
# T4 sequence (P29275 1-332): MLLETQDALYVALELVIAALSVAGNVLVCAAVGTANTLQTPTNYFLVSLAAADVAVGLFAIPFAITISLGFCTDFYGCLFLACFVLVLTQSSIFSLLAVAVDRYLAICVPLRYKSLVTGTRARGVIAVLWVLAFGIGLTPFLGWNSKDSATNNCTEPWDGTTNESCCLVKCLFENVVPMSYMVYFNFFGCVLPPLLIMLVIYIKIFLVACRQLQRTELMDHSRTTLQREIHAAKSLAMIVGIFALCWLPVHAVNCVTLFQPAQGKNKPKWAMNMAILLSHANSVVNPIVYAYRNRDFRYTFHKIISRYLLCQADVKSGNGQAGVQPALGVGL
# Experimental: Measurement of cyclic AMP (CAMP) levels in CHO cells transfected with human A2B adenosine receptors was performed in the following manner. CHO cells transfected with human A2B adenosine receptors were washed with phosphate-buffered saline, diluted tripsine and centrifuged for 10 minutes at 200 g.
# The reaction was terminated by the addition of cold 6% thrichloroacetic acid (TCA). The TCA suspension was centrifuged at 2000 g for 10 minutes at 4° C. and the supernatant was extracted four times with water saturated diethyl ether. The final aqueous, solution was tested for cAMP levels by a competition protein binding assay. Samples of cAMP standard (0–10 pmoles) were added to each test tube containing the incubation buffer (trizma base 0.1 M, aminophylline 8.0 mM, 2-mercaptoethanol 6.0 mM, pH 7.4) and [H^3]-cAMP in a total volume of 0.5 ml. The binding protein previously prepared from beef adrenals, was added to the samples previously incubated at 4° C. for 150 minutes, and after the addition of charcoal were centrifuged at 2000 g for 10 minutes. The clear supernatant was counted in a Beckman scintillation counter.
# Finally, to evaluate the regulation of adenylyl cyclase activity and to test whether the binding parameters correlated with the functional response, the IC50 values were obtained for inhibition of cAMP production by antagonists. In particular, we evaluated the capability of the several compounds to inhibit NECA (100 nM)-stimulated cyclic AMP accumulation.
# [5] = target: T4, human A2B adenosine receptor; test: [3H]DPCPX binding to human A2B receptors expressed in HEK293 cells; parameters: host or cells: HEK 293 cells (membranes)
# Method in brief: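 Membranes (20 μg protein) from HEK293 cells expressing recombinant human A2B receptor were incubated 60 min at 25° C with 40 nM [3H]-DPCPX and 6–8 compound concentrations. Buffer was Tris-HCl with MgCl2, 1 mM EDTA, 0.1 mM benzamidine and 2 IU/ml adenosine deaminase, pH 7.4. Filter-bound radioactivity gave the inhibitory binding constant.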
# [6] = geometric mean (95% confidence interval), >1000 = no appreciable binding
# [7] = Table 2, geometric mean (95% confidence limits), at least three experiments in duplicate, read-out: [3H]-DPCPX binding to human A2B receptors in HEK 293 cells Ki
# [8] = geometric mean (95% confidence interval), >1000 = no appreciable binding, read-out: Ki, [3H]DPCPX binding to human A2B receptors expressed in HEK293 cells
SMILES,"Ki [1, 6]",Ki [2],Ki [3],IC50 [4],"Ki [5, 7]","Ki [5, 8]",Ki [1],"Ki, [3H]DPCPX binding to human A1 receptors expressed in CHO cells [1, 6]","Ki, [3H]ZM241385 binding to human A2A receptors expressed in CHO cells [2]","Ki, [3H]MRE3008F20 binding to human A3 receptors expressed in CHO cells [3]"
"CCCn1c(=O)c2[nH]c(-c3cc(NC(=O)Cc4ccc(OC)c(OC)c4)nn3C)nc2n(CCC)c1=O [AS28, 2-(3,4-dimethoxyphenyl)-N-[5-(2,6-dioxo-1,3-dipropyl-2,3,6,9-tetrahydro-1H-purin-8-yl)-1-methyl-1H-pyrazol-3-yl]acetamide]",,> 1000 nM,> 1000 nM,120 nM,38 nM,38 nM,,no appreciable binding; also recorded: without significant binding,no appreciable binding; also recorded: without significant binding,no appreciable binding; also recorded: without significant binding
CCCn1c(=O)c2[nH]c(-c3cc(NC(=O)Cc4ccccc4)n(C)n3)nc2n(CCC)c1=O [AS35],,,,152 nM,34 nM,34 nM,,,,
"CC(C)Cn1c(=O)c2[nH]c(-c3cc(OCC(=O)Nc4ccc(Br)cc4)n(C)n3)nc2n(CC(C)C)c1=O [AS63, 2-{[3-(1,3-diisobutyl-2,6-dioxo-2,3,6,9-tetrahydro-1H-purin-8-yl)-1-methyl-1H-pyrazol-5-yl]oxy}-N-(4-bromophenyl)acetamide]",49 nM,> 1000 nM,> 1000 nM,,,66 nM,,,,
CCCn1c(=O)c2[nH]c(-c3cc(OCC(=O)Nc4ccc(C(C)=O)cc4)nn3C)nc2n(CCC)c1=O [AS69],,,,,,86 nM,,without significant binding,without significant binding,without significant binding
CCCn1c(=O)c2[nH]c(-c3cc(OCC(=O)Nc4ccc(C)cc4)nn3C)nc2n(CCC)c1=O [AS92],79 nM,> 1000 nM,> 1000 nM,,,19 nM,,,,
"CCCn1c(=O)c2[nH]c(-c3cc(OCC(=O)Nc4ccc(C)c(C)c4)nn3C)nc2n(CCC)c1=O [AS99, 1,3-di-n-propyl-8-{5-[(3,4-dimethyl-phenylcarbamoyl)-methoxy]-2-methyl-2H-pyrazole-3-yl}-xanthine]",700 nM,> 1000 nM,> 1000 nM,,,10 nM,,,,
"CCCn1c(=O)c2[nH]c(-c3ccc(O)nc3)nc2n(CCC)c1=O [AS103, 1,3-di-n-propyl-8-(2-hydroxypyridin-5-yl)-xanthine]",,606 nM,116 nM,,,4.9 nM,81 nM,,,

# Continued by falling Ki [5, 8], values first:
"Ki [1, 6]",Ki [2],Ki [3],IC50 [4],"Ki [5, 7]","Ki [5, 8]",Ki [1],SMILES,"Ki, [3H]DPCPX binding to human A1 receptors expressed in CHO cells [1, 6]","Ki, [3H]ZM241385 binding to human A2A receptors expressed in CHO cells [2]","Ki, [3H]MRE3008F20 binding to human A3 receptors expressed in CHO cells [3]"
72 nM,> 1000 nM,> 1000 nM,,,207 nM,,"CC(C)Cn1c(=O)c2[nH]c(-c3cc(OCC(=O)Nc4ccc(F)cc4)n(C)n3)nc2n(CC(C)C)c1=O [AS62, 2-{[3-(1,3-diisobutyl-2,6-dioxo-2,3,6,9-tetrahydro-1H-purin-8-yl)-1-methyl-1H-pyrazol-5-yl]oxy}-N-(4-fluorophenyl)acetamide]",,,
181 nM,> 1000 nM,> 1000 nM,,,185 nM,,"CCCn1c(=O)c2[nH]c(-c3cc(OCC(=O)Nc4ccc(F)cc4)n(C)n3)nc2n(CCC)c1=O [AS61, N-(4-fluorophenyl)-2-{[3-(2,6-dioxo-1,3-dipropyl-2,3,6,9-tetrahydro-1H-purin-8-yl)-1-methyl-1H-pyrazol-5-yl]oxy}acetamide]",,,
2430 nM,> 1000 nM,> 1000 nM,,,132 nM,,"CC(C)Cn1c(=O)c2[nH]c(-c3cc(OCC(=O)Nc4ccc(Br)cc4)nn3C)nc2n(CC(C)C)c1=O [AS67, 2-{[5-(1,3-diisobutyl-2,6-dioxo-2,3,6,9-tetrahydro-1H-purin-8-yl)-1-methyl-1H-pyrazol-3-yl]oxy}-N-(4-bromophenyl)acetamide]",,,
900 nM,> 1000 nM,> 1000 nM,103 nM,35 nM,35 nM,,"CCCn1c(=O)c2[nH]c(-c3cc(NC(=O)Cc4ccccc4)nn3C)nc2n(CCC)c1=O [AS11, N-[5-(2,6-dioxo-1,3-dipropyl-2,3,6,9-tetrahydro-1H-purin-8-yl)-1-methyl-1H-pyrazol-3-yl]-2-phenylacetamide]",,,
520 nM,> 1000 nM,> 1000 nM,128 nM,28 nM,28 nM,,"CCCn1c(=O)c2[nH]c(-c3cc(NC(=O)Cc4ccc(Cl)cc4)nn3C)nc2n(CCC)c1=O [AS27, N-[5-(2,6-dioxo-1,3-dipropyl-2,3,6,9-tetrahydro-1H-purin-8-yl)-1-methyl-1H-pyrazol-3-yl]-2-(4-chlorophenyl)acetamide]",,,
300 nM,> 1000 nM,> 1000 nM,,,16 nM,,"CCCn1c(=O)c2[nH]c(-c3cc(OCC(=O)Nc4ccc(Cl)c(Cl)c4)nn3C)nc2n(CCC)c1=O [AS100, 1,3-di-n-propyl-8-{5-[(3,4-chloro-phenylcarbamoyl)-methoxy]-2-methyl-2H-pyrazole-3-yl}-xanthine]",,,
250 nM,> 1000 nM,> 1000 nM,,,15 nM,,"CCCn1c(=O)c2[nH]c(-c3cc(OCC(=O)N4CCN(c5ccccc5)CC4)nn3C)nc2n(CCC)c1=O [AS70, 1,3-di-n-propyl-8-{5-[2-oxo-2-(4-phenyl-piperazin-1-yl)-ethoxy]-2-methyl-2H-pyrazole-3-yl}-xanthine]",,,

# — US7205403B2, “8-Heteroaryl xanthine adenosine A2B receptor antagonists” (King Pharmaceuticals Research and Development, Inc., priority 2002, dated 2007)
